Results from the supplement of paper PMC10307832.

How the values were obtained:
Assay in all cases: relative viability (nuclei count vs DMSO), 5 days (fraction); higher = more cells survive
[1] = compound: O=C1NC(=O)[C@@H](c2cn3c4c(cccc24)CCC3)[C@@H]1c1c[nH]c2ccccc12 [Tivantinib] + Nc1nc2[nH]cc(CCc3ccc(C(=O)N[C@@H](CCC(=O)O)C(=O)O)cc3)c2c(=O)[nH]1 [Pemetrexed] (partner 0.2 µM)
Outline: (§1)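 Nuclei were stained with Hoechst during a one-step fixation (final 0.05% Triton X-100, 1% formaldehyde, 1 ug/ml Hoechst) carried out 5 days after dosing, then counted on 4× images. The cells, lung cancer lines in 1536-well plates, had been dosed by pin tool the day after seeding with one drug alone or a fixed anchor-drug dose plus five library-drug doses (not always all listed) in √10 steps. Relative viability is the nuclei count in treated wells divided by that in vehicle wells, and each value is the median of duplicate plates.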

[2] = compound: CC1(COc2ccc3c(c2)ncn3-c2ccc3cccc(N4CCC(N)CC4)c3n2)COC1 [Crenolanib] + Cc1cc(Nc2cc(N3CCN(C)CC3)nc(Sc3ccc(NC(=O)C4CC4)cc3)n2)n[nH]1 [Tozasertib] (partner 0.1 µM)
Outline: as §1

[3] = compound: O=C1NC(=O)[C@@H](c2cn3c4c(cccc24)CCC3)[C@@H]1c1c[nH]c2ccccc12 [Tivantinib] + C[C@@H](Oc1cc(-c2cnn(C3CCNCC3)c2)cnc1N)c1c(Cl)ccc(F)c1Cl [Crizotinib] (partner 1 µM)
Outline: as §1

[4] = compound: O=C1NC(=O)[C@@H](c2cn3c4c(cccc24)CCC3)[C@@H]1c1c[nH]c2ccccc12 [Tivantinib] + CC1(C)CCC(c2ccc(Cl)cc2)=C(CN2CCN(c3ccc(C(=O)NS(=O)(=O)c4ccc(N[C@H](CCN5CCOCC5)CSc5ccccc5)c(S(=O)(=O)C(F)(F)F)c4)cc3)CC2)C1 [Navitoclax] (partner 0.5 µM)
Outline: as §1

Cell Line | relative viability ([1]; first compound 0.01 µM) | relative viability ([1]; first compound 0.03162 µM) | relative viability ([1]; first compound 0.1 µM) | relative viability ([1]; first compound 0.3162 µM) | relative viability ([2]; first compound 0.01 µM) | relative viability ([2]; first compound 0.03162 µM) | relative viability ([2]; first compound 0.1 µM) | relative viability ([2]; first compound 0.3162 µM) | relative viability ([2]; first compound 1 µM) | relative viability ([3]; first compound 0.01 µM) | relative viability ([3]; first compound 0.03162 µM) | relative viability ([3]; first compound 0.1 µM) | relative viability ([3]; first compound 0.3162 µM) | relative viability ([4]; first compound 0.01 µM) | relative viability ([4]; first compound 0.03162 µM) | relative viability ([4]; first compound 0.1 µM) | relative viability ([4]; first compound 0.3162 µM)
SW 1573 | 0.918 | 0.797 | 0.818 | 0.76 | 0.175 | 0.198 | 0.137 | 0.212 | 0.174 | 0.751 | 0.761 | 0.902 | 0.496 | 1.02 | 0.917 | 1.06 | 1.14
ChaGo-K-1 | 0.264 | 0.254 | 0.264 | 0.251 | 0.26 | 0.264 | 0.234 | 0.209 | 0.22 | 1.1 | 1.2 | 1.11 | 0.939 | 1.11 | 0.845 | 0.97 | 1.1
COR-L 105 | 1.02 | 1.05 | 1.08 | 0.696 | 0.379 | 0.426 | 0.365 | 0.38 | 0.358 | 0.725 | 0.769 | 0.787 | 0.435 | 0.856 | 0.867 | 0.748 | 0.626
NCI-H1993 | 0.621 | 0.53 | 0.586 | 0.541 | 0.639 | 0.588 | 0.572 | 0.579 | 0.543 | 0.931 | 0.929 | 0.899 | 0.765 | 1.04 | 0.929 | 1.06 | 0.681
NCI-H2009 | 1.01 | 1.12 | 1.04 | 1.08 | 0.748 | 0.713 | 0.724 | 0.722 | 0.52 | 1.05 | 1.07 | 1.06 | 0.98 | 1.08 | 1.22 | 1.2 | 1.16
SK-LU-1 | 0.935 | 1.06 | 0.96 | 1.04 | 0.395 | 0.369 | 0.342 | 0.349 | 0.34 | 0.95 | 1.01 | 0.872 | 0.716 | 0.864 | 0.783 | 0.941 | 0.733
NCI-H2347 | 0.405 | 0.454 | 0.394 | 0.419 | 0.646 | – | – | 0.454 | 0.48 | 0.756 | 0.564 | 0.74 | 0.674 | 0.868 | 0.718 | 0.678 | 0.755
HCC-44 | 0.62 | 0.654 | 0.616 | 0.664 | 1.07 | 0.781 | 0.89 | 0.578 | 0.57 | 0.766 | 0.915 | 0.773 | 0.787 | 0.971 | 0.935 | 1.06 | 0.872
EMC-BAC-2 | 0.457 | 0.448 | 0.475 | 0.479 | 0.312 | 0.251 | 0.322 | 0.239 | 0.309 | 0.833 | 0.728 | 0.751 | 0.657 | 1.14 | 1.12 | 1.18 | 1.05
NCI-H3122 | 0.179 | 0.199 | 0.196 | 0.162 | 0.406 | 0.399 | 0.373 | 0.334 | 0.452 | 0.271 | 0.275 | 0.252 | 0.272 | 1.02 | 0.971 | 0.974 | 1.01
NCI-H1944 | 0.603 | 0.582 | 0.619 | 0.546 | 0.251 | 0.248 | 0.261 | 0.242 | 0.234 | 1.01 | 1.01 | 1.03 | 0.64 | 0.975 | 0.997 | 0.992 | 0.778
H3255 | 0.554 | 0.586 | 0.598 | – | 0.672 | 0.609 | 0.579 | 0.671 | 0.611 | 0.905 | 0.922 | 0.763 | – | 0.559 | 0.564 | 0.508 | –
NCI-H1975 | 0.294 | 0.287 | 0.249 | 0.27 | 0.754 | 0.759 | 0.698 | 0.881 | 0.632 | 0.938 | 0.929 | 0.924 | 1.05 | 1.03 | 1.07 | 1.12 | 1.16
NCI-H647 | 0.17 | 0.192 | 0.18 | 0.184 | 0.294 | 0.384 | 0.285 | 0.354 | 0.297 | 1.18 | 1.07 | 1.03 | 0.995 | 1.06 | 1.27 | 1.07 | 0.758
NCI-H441 | 0.294 | 0.254 | 0.254 | 0.282 | 0.68 | 0.82 | 0.643 | 0.717 | 0.663 | 0.847 | 0.725 | 0.546 | 0.801 | 0.737 | 0.869 | – | 0.439
NCI-H1355 | 1.03 | 1.01 | 1 | 1.03 | 0.586 | 0.596 | 0.508 | 0.354 | 0.534 | 1.15 | 1.1 | 1.01 | 0.806 | 0.879 | 0.966 | 0.949 | 0.808
NCI-H23 | 0.688 | 0.653 | 0.646 | 0.715 | 0.358 | 0.394 | 0.385 | 0.313 | 0.27 | 0.511 | 0.615 | 0.512 | 0.416 | 0.987 | 1.01 | 0.759 | 0.753

Cell Line | relative viability ([1]; first compound 0.01 µM) | relative viability ([1]; first compound 0.03162 µM) | relative viability ([1]; first compound 0.1 µM) | relative viability ([1]; first compound 0.3162 µM) | relative viability ([2]; first compound 0.01 µM) | relative viability ([2]; first compound 0.03162 µM) | relative viability ([2]; first compound 0.1 µM) | relative viability ([2]; first compound 0.3162 µM) | relative viability ([2]; first compound 1 µM) | relative viability ([3]; first compound 0.01 µM) | relative viability ([3]; first compound 0.03162 µM) | relative viability ([3]; first compound 0.1 µM) | relative viability ([3]; first compound 0.3162 µM) | relative viability ([4]; first compound 0.01 µM) | relative viability ([4]; first compound 0.03162 µM) | relative viability ([4]; first compound 0.1 µM) | relative viability ([4]; first compound 0.3162 µM)
LC-2-ad | 0.3 | 0.252 | 0.276 | 0.259 | 0.495 | 0.435 | 0.447 | 0.34 | 0.385 | 0.515 | 0.411 | 0.501 | 0.411 | 0.375 | 0.436 | 0.438 | 0.308
SK-MES-1 | 0.95 | 0.913 | 0.816 | 0.783 | 0.899 | 0.832 | 0.847 | 0.912 | 0.746 | 0.984 | 1.06 | 0.89 | 0.739 | 1.24 | 1.17 | 1.1 | 0.896
NCI-H2170 | 0.288 | 0.285 | 0.244 | – | 0.747 | 0.857 | 0.69 | 0.648 | 0.769 | 1.31 | 1.13 | 1.04 | – | 0.655 | 0.555 | 0.534 | –
NCI-H2087 | 0.645 | 0.78 | 0.58 | 0.603 | 0.219 | 0.277 | 0.239 | 0.262 | 0.254 | 0.987 | 0.913 | 0.856 | 1.01 | 1.14 | 0.981 | 0.972 | 1.03
NCI-H838 | 0.253 | 0.258 | 0.239 | 0.227 | 0.321 | 0.287 | 0.25 | 0.266 | 0.251 | 0.831 | 0.924 | 0.886 | 0.963 | 1.06 | 1.13 | 1.06 | 1.2
NCI-H460 | 0.059 | 0.0663 | 0.0596 | 0.0576 | 0.621 | 0.44 | 0.421 | 0.056 | 0.397 | 0.878 | 0.884 | 0.848 | 0.217 | 1.06 | 1.02 | 0.988 | 1.13
LU99A | 0.173 | 0.201 | 0.16 | 0.178 | 0.288 | 0.261 | 0.277 | 0.249 | 0.263 | 0.516 | 0.593 | 0.576 | 0.413 | 0.758 | 0.789 | 0.767 | 0.486
NCI-H322M | 0.682 | 0.614 | 0.588 | – | 0.51 | 0.503 | 0.461 | 0.424 | 0.465 | 0.823 | 0.94 | 0.901 | 1.02 | 1.11 | 1.06 | 1.14 | 1.16
NCI-H520 | 0.695 | 0.716 | 0.631 | 0.652 | 0.48 | 0.475 | 0.514 | 0.477 | 0.437 | 0.797 | 0.764 | 0.758 | 1.05 | 1.12 | 1.17 | 0.995 | 1.1
NCI-H1755 | 0.475 | 0.381 | 0.358 | 0.439 | 0.666 | 0.594 | 0.527 | 0.501 | 0.549 | 0.892 | 0.878 | 0.793 | 0.92 | 1.02 | 0.954 | 0.934 | 1.03
HARA | 0.279 | 0.252 | 0.263 | 0.24 | 0.138 | 0.131 | 0.145 | 0.116 | 0.121 | 1.07 | 1.01 | 1.01 | 0.878 | 1.14 | 1.13 | 1.12 | 1.14
201T | 0.328 | 0.281 | 0.357 | 0.319 | 1.04 | 1.02 | 0.856 | 0.733 | 0.945 | 1.01 | 1.01 | 1.04 | 1.02 | 1.12 | 1.17 | 1.17 | 1.18
NCI-H2228 | 0.363 | 0.319 | 0.329 | 0.352 | 0.291 | 0.279 | 0.236 | 0.223 | 0.256 | 0.449 | 0.481 | 0.427 | 0.337 | 1.15 | 0.71 | 0.837 | 1.01
CAL-12T | 1.11 | 1.3 | 1.18 | 1.21 | 0.314 | 0.349 | 0.294 | 0.343 | 0.36 | 0.711 | 0.774 | 0.714 | 0.36 | 1.2 | 1.3 | 1.16 | 1.03
NCI-H596 | 0.503 | 0.406 | 0.453 | 0.426 | 0.944 | 1.09 | 1.02 | 1.19 | 0.972 | 1.08 | 0.92 | 0.987 | 0.905 | 1.07 | 1.02 | 0.948 | 0.73
NCI-H2085 | 0.975 | 0.773 | 0.876 | 0.75 | 0.895 | 0.841 | 0.726 | 0.754 | 0.816 | 0.909 | 0.76 | 0.75 | 0.756 | 1.18 | 1.28 | 1.2 | 0.939
NCI-H2023 | 0.278 | 0.206 | 0.253 | 0.191 | 0.471 | 0.368 | 0.333 | 0.371 | 0.25 | 0.602 | 0.762 | 0.673 | 0.639 | 1.01 | 1 | 0.937 | 1
